Where a SMILES comes first, the peptide text is derived from it. [ ]: non-standard residue; d: D form. The star is where a group is joined. X1 = CC(C)CCC[C@@H](C)[C@H]1CC[C@H]2[C@@H]3CC[C@H]4C[C@@H](O*)CC[C@]4(C)[C@H]3CC[C@]12C; PEG4 = NCCOCCOCCOCCOCCC(=O)O; PEG3 = NCCOCCOCCOCCC(=O)O
Tests used:
[1] = test system: NK1R-positive neurons in lamina I of the dorsal horn; assay: Cell-attached patch clamp recordings in rat spinal cord slices; assay type: cell-based
Description: To evaluate whether NK1R endosomal signaling mediates this sustained activation, cell-attached patch clamp recordings were made from NKiR-positive neurons in lamina I of the dorsal horn in slices of rat spinal cord. […] These findings support a role for NK1R endocytosis in persistent neuronal excitation.
Parasagittal slices (340-400 μm) were prepared using a vibratome from the lumbar region of the rat spinal cord in ice-cold sucrose-based artificial CSF (sACSF) (mM: 100 sucrose, 63 NaCl, 2.5 KCl, 1.2 NaH2PO4, 1.2 MgCl2, 25 glucose, 25 NaHCO3; 95% O2/5% CO2). Slices were transferred to N-Methyl-D-Glucamine (NMDG)-based recovery ACSF (rACSF) (mM: 93 NMDG, 93 HCl, 2.5 KCl, 1.2 NaH2PO4, 30 NaHCO3, 20 HEPES, 25 glucose, 5 Na ascorbate, 2 thiourea, 3 Na pyruvate, 10 MgSO4, 0.5 CaCl2; 95% O2/5% CO2, 15 min, 34° C.). Slices were transferred to normal ACSF (mM: 125 NaCl, 2.5 KCl, 1.25 NaH2PO4, 1.2 MgCl2, 2.5 CaCl2, 25 glucose, 11 NaHCO3; 95% O2/5% CO2) containing 10 μM MK-801 (45 min, 34° C.), then maintained at RT.
Slices of rat spinal cord were transferred to a recording chamber and superfused with normal ACSF (2 ml·min^−1, 36° C.). […] PS2 was not soluble in the low concentrations of DMSO required for electrophysiology. Large, NKiR-positive, presumed nociceptive lamina I neurons were visually identified as described (Imlach, W. L., et al., Molecular Pharmacology, 2015, 88, 460-428). Spontaneous currents were recorded in cell-attached configuration (Multiclamp 700B, Molecular Devices, Sunnyvale, Calif.), sampled at 10 kHz, high pass filtered at 1 Hz, and capacitatively coupled action potential events were analyzed using Axograph X, V 1.4.4 (Axograph). Patch electrodes (resistance 2.5-3.5 MQ) contained KMES-based internal solution (mM: 105 KMES, 20 NaCl, 5 HEPES, 10 BAPTA, 1.5 MgCl2, 4 MgATP, 0.4 NaGTP, 0.1% biocytin; 285-295 mosmol·l^−1) to facilitate subsequent recordings of action potential properties in whole-cell configuration. Recordings were made in the presence of CNQX (6-cyano-7-nitroquinoxaline-2,3-dione) (10 μM; AMPA/kainate receptor antagonist), picrotoxin (100 μM; GABAA receptor antagonist), strychnine (0.5 μM; glycine and acetylcholine receptor antagonist), and AP5 ((2R)-amino-5-phosphonovaleric acid; (2R)-amino-5-phosphonopentanoate) (100 μM; NMDA receptor antagonist) to minimize presynaptic influences on action potential properties. […] Recordings were sampled at 10 kHz and filtered with a high pass filter at 1 Hz and firing rate was measured in two-minute interval bins. At the end of each cell-attached recording, whole-cell recordings were made in current-clamp mode to confirm retention of normal action potential firing. Data were only included in the analysis if cells had action potential amplitudes that were ≥50 mV above threshold to ensure viable neurons were included. Cells were filled with biocytin and sections were processed to confirm NK1R expression by immunofluorescence. […] The firing time was determined as the duration of the response to last action potential. To assess synaptic transmission, whole-cell configuration recordings were made under control conditions or after exposure to Dy4 or Dy4 inact; a bipolar stimulating electrode was placed at the dorsal root entry zone, and electrically-evoked excitatory postsynaptic currents recorded as described (Imlach, W. L., et al., Molecular Pharmacology, 2015, 88, 460-428).

[2] = test system: NK1R; assay: NK1R endocytosis in rat spinal neurons in vivo; conditions: lamina I neurons; i.t. 50 μM 30 min before intraplantar capsaicin; 10 min after capsaicin
Description: The spinal cord was collected 10 min later for localization of the NK1R. In controls (intrathecal, intraplantar vehicle), NK1R-IR was mostly at the plasma membrane of the soma and neurites of lamina I neurons (80.7±1.6% of total NK1R-IR within […] of the soma plasma membrane).
After 10 min, rats were transcardially perfused with PBS and then 4% PFA. The spinal cord was removed, immersion fixed in PFA (2 h, 4° C.), and cryoprotected (30% sucrose, PBS, 24 h, 4° C.). The spinal cord (T12 to L4) was embedded in OCT and […] serial coronal sections were cut into 48-well plates containing PBS. Free-floating sections were blocked in PBS containing 10% normal horse serum (1 h, RT). Sections were incubated with mouse anti-NeuN (1:20,000; AbCam) and either rabbit anti-NK1R (1:5,000, #94168) or rabbit anti-pERK (1:200; Cell Signaling Technology) in PBS containing 3% normal horse serum (48 h, 4° C.). Sections were washed (4×20 min in PBS) and incubated with donkey anti-rabbit Alexa488 (1:8,000) and donkey anti-mouse Alexa568 (1:2,000 (Life Technologies) (1 h, RT). Sections were washed, incubated with DAPI (10 μg/ml, 5 min), and mounted in Vectashield (Vector Laboratories).
Tissues and cells were observed using a Leica SP8 confocal microscope using HCX PL APO 40× (NA 1.30) and HCX PL APO 63× (NA 1.40) oil objectives. Z stacks were collected of NKiR-positive neurons in lamina I of the dorsal horn. Video projections of Z stacks were made using Imaris Software (Bitplane). NK1R endocytosis and pERK expression were quantified using ImageJ. To quantify NK1R internalization in lamina I neurons, the border of the cytoplasm of the neuronal soma was defined by NeuN fluorescence, and NK1R fluorescence within 5 pixels (0.5 μm) of the border was defined as plasma membrane-associated receptor. The ratio of plasma membrane to cytosolic NK1R-IR fluorescence was determined in >6 lamina I neurons per condition. To quantify ERK activation, the ratio of the number of pERK-IR neurons to total Neu-N-positive neurons in lamina I was determined in >6 fields (×40 objective) per condition.

[3] = test system: NK1R; assay: Alexa568-SP trafficking in HEK-NK1R cells; assay type: cell-based, rat; conditions: 30 min at 37° C.
[4] = 1 μM for 60 min, washed, 60 min antagonist-free, then SP
[5] = 30 μM, preincubated 10 min, SP 1 μM, 2 min

SMILES	effect on initial SP-evoked excitation [1, 4]	effect on sustained action potential discharge after SP removal [1, 4]	SP-evoked firing rate, response at 2 min ([1]; 1 μM for 60 min, washed, 60 min antagonist-free, then SP, P>0.05)	effect on initial SP-evoked excitation [1, 5]	effect on sustained action potential discharge after SP removal [1, 5]	effect on glutaminergic primary afferent synaptic transmission and synaptic rundown ([1]; slices of rat spinal cord)	NK1R-IR at plasma membrane (% membrane) [2]	effect on Alexa568-SP redistribution to endosomes [3]
CC(=O)N[C@@H](CC(=O)O[C@H]1CC[C@@]2(C)[C@@H](CC[C@@H]3[C@@H]2CC[C@]2(C)[C@@H]([C@H](C)CCCC(C)C)CC[C@@H]32)C1)C(=O)NCCOCCOCCOCCOCCC(=O)NCCOCCOCCOCCC(=O)NCCOCCOCCOCCOCCC(=O)N[C@H](CCCNC(=N)N)C(=O)N1CCC[C@H]1C(=O)N[C@@H](CCCCN)C(=O)N1CCC[C@H]1C(=O)N[C@@H](CCC(N)=O)C(=O)N[C@@H](CCC(N)=O)C(=O)N[C@H](Cc1c[nH]c2ccccc12)C(=O)N[C@@H](Cc1ccccc1)C(=O)N[C@H](Cc1c[nH]c2ccccc12)C(=O)N[C@@H](CC(C)C)C(=O)N[C@@H](CC(C)C)C(N)=O [Compound 1] (Ac-D(X1)[PEG4][PEG3][PEG4][dR]PKPQQ[dW]F[dW]LL-NH2)	did not suppress the initial excitation	prevented the action potential discharge	196.6±81.6 events. 2 min^−1	–	–	–	–	–
O=C(N/N=C/c1cc(O)c(O)cc1O)c1cc2ccccc2cc1O [Dy4]	–	–	–	did not affect the initial excitation	prevented the sustained action potential discharge	did not affect	59.6±0.2%	caused retention of Alexa568-SP in vesicles close to the plasma membrane
O=C1NC(=NS(=O)(=O)c2cccc3ccccc23)S/C1=C\c1ccc(Br)cc1 [PS2]	–	–	–	–	–	–	69.0±1.1%	caused retention of Alexa568-SP in vesicles close to the plasma membrane

Reference: patent US11324832B2, “Tripartite modulators of endosomal G protein-coupled receptors” (Endosome Therapeutics, Inc., priority 2015, dated 2022)
